As a reminder, the Ki is the dissociation constant of the complex between target and ligand, obtained from inhibition or displacement.

Molecules are shown by their SMILES.

Consider 28 molecules from US20080293727A1, “Novel sulfonamide inhibitors of aspartyl protease” (priority 1992, published 2008).

This assay concerns the target HIV-1 protease (Human immunodeficiency virus type 1 group M subtype B, UniProt P04585). Briefly: Inhibition constants against HIV-1 protease (method of Pennington et al.). In kind it is biochemical. Conditions: HIV-1 protease; read-out: Ki value. From the text: We measured the inhibition constants of the compounds listed in Table VII against HIV-1 protease using the above-cited method of Pennington et al.
Consider `CN(C[C@@H](O)[C@H](Cc1ccccc1)NC(=O)OC(C)(C)C)S(=O)(=O)c1ccc(F)cc1` [Compound 127], for which the Ki was 650 nM. On to `O=C(N[C@@H](Cc1ccccc1)[C@H](O)CN(CC1CCCC1)S(=O)(=O)c1ccc(Cl)c(Cl)c1)O[C@H]1CCOC1` [Compound 183, 3,4-Dichloro-N-cyclopentylmethyl-N-((2 syn,3S)-2-hydroxy-4-phenyl-3-((S)-tetrahydrofuran-3-yloxycarbonylamino)-butyl)-benzenesulfonamide], for which the Ki came to 0.1 nM. Regarding `CC(C)CN(C[C@@H](O)[C@H](Cc1ccccc1)NC(=O)OCc1cccnc1)S(=O)(=O)c1ccc2nonc2c1` [Compound 82], the Ki stood at 1.5 nM.

Turning to `CC(=O)Nc1ccc(S(=O)(=O)N(CC(C)C)C[C@@H](O)[C@H](Cc2ccccc2)NC(=O)OCc2cccnc2)cc1` [Compound 44, N-(4-(((2 syn,3S)-2-Hydroxy-4-phenyl-3-(pyridin-3-yl-methoxycarbonylamino)-butyl)-isobutyl-sulfamoyl)-phenyl)-acetamide], the inhibition constant (Ki) was found to be 5 nM. As for `CCCOC(=O)N[C@@H](Cc1ccccc1)[C@H](O)CN(CC(C)C)S(=O)(=O)c1ccc(Cl)c(Cl)c1` [Compound 89], the figure is 2 nM; as for `CC(=O)Nc1cc(S(=O)(=O)N[C@@H](Cc2ccccc2)[C@H](O)CN(CC(C)C)S(=O)(=O)c2ccc(F)c(NC(C)=O)c2)ccc1F` [Compound 70], 25 nM. For the molecule `O=C1N[C@H](COC(=O)N[C@@H](Cc2ccccc2)[C@H](O)CN(CC2CCCC2)S(=O)(=O)c2ccc(Cl)cc2)CO1` [Compound 139, 4-Chloro-N-cyclopentylmethyl-N-(2-(syn)-hydroxy-3-((2-oxazolidon-4-(S)-yl-methyl)-oxycarbonylamino)-4-phenyl-butyl)-benzenesulfonamide], the Ki is 1.2 nM. Take `COc1ccc(S(=O)(=O)N(CC2CCCC2)C[C@@H](O)[C@H](CC2CCCCC2)NC(=O)O[C@H]2CCOC2)cc1` [Compound 195, N-((2 syn,3S)-4-Cyclohexyl-2-hydroxy-3-((S)-tetrahydrofuran-3-yloxycarbonylamino)-butyl)-N-cyclopentylmethyl-4-methoxy-benzenesulfonamide]: the Ki stood at 0.2 nM. As for `CC(C)CN(C[C@@H](O)[C@H](Cc1ccccc1)NC(=O)[C@H](CC(N)=O)NC(=O)c1ccc2ccccc2n1)S(=O)(=O)c1cc(S(=O)(=O)c2ccccc2)cs1` [Compound 13, (S)-N-1-(3-((4-Benzenesulfonyl-thiophene-2-sulfonyl)-isobutyl-amino)-(1S,2 syn)-1-benzyl-2-hydroxy-propyl)-2-((quinoline-2-carbonyl)-amino)-succinamide], the figure is 0.2 nM.

Consider `COc1ccc(S(=O)(=O)N(CC2CCCC2)C[C@@H](O)[C@H](Cc2ccccc2)NC(=O)OCc2cccnc2)cc1` [Compound 142], for which the inhibitory constant (Ki) was under 0.1 nM. For the molecule `CC(=O)Nc1ccc(S(=O)(=O)N(CC(C)C)C[C@@H](O)[C@H](Cc2ccccc2)NC(=O)C(=O)C(C)(C)C)cc1` [Compound 1001], the inhibitory constant (Ki) was 220 nM. As for `C=C(COC)COC(=O)N[C@@H](Cc1ccccc1)[C@H](O)CN(CC(C)C)S(=O)(=O)c1ccc(NC(C)=O)cc1` [Compound 155, N-4-((2-(syn)-Hydroxy-3-((2-methoxymethyl-allyloxycarbonylamino)-4-(S)-phenyl-butyl)-isobutyl-sulfamoyl)-phenyl)-acetamide], the Ki was 1.7 nM. Under `CC(=O)Nc1ccc(S(=O)(=O)N(CC2CCCO2)CC(O)C(Cc2ccccc2)NC(=O)OC2CCOC2)cc1` (stereo not shown) [Compound 133] stands 24 nM; under `C=C(C)CN(C[C@@H](O)[C@H](Cc1ccccc1)NC(=O)O[C@H]1CCOC1)S(=O)(=O)c1ccc(OC)cc1` [Compound 1006], 8 nM; under `CC(C)CN(C[C@@H](O)[C@H](Cc1ccccc1)NC(=O)[C@H](CC(N)=O)NC(=O)c1ccc2ccccc2n1)S(=O)(=O)c1cccc2nonc12` [Compound 20, (S)-N-1-(3-((Benzo(1,2,5)oxadiazole-4-sulfonyl)-isobutyl-amino)-(1S,2 syn)-1-benzyl-2-hydroxy-propyl)-2-((quinoline-2-carbonyl)-amino)-succinamide], 0.1 nM. Regarding `C=CCCOC(=O)N[C@@H](Cc1ccccc1)[C@H](O)CN(CC(C)C)S(=O)(=O)c1ccc(NC(C)=O)cc1` [Compound 36], the Ki was found to be 19 nM. Consider `CC(C)CN(C[C@@H](O)[C@H](Cc1ccccc1)NC(=O)O[C@@H]1CCOC1)S(=O)(=O)c1ccc(F)cc1` [Compound 93, 4-Fluoro-N-((2 syn,3S)-2-hydroxy-4-phenyl-3-((R)-tetrahydrofuran-3-yloxycarbonylamino)-butyl)-N-isobutyl-benzenesulfonamide], for which the Ki stood at 0.8 nM.

Take `CC(C)CN(C[C@@H](O)[C@H](Cc1ccccc1)NC(=O)O[C@H]1CCOC1)S(=O)(=O)c1ccc(F)c(F)c1` [Compound 124]: the inhibition constant Ki was determined as 1.1 nM. For the molecule `CC(=O)Nc1ccc(S(=O)(=O)N(CC(C)C)C[C@@H](O)[C@H](Cc2ccccc2)NC(=O)C(C)(C)NC(=O)OC(C)(C)C)cc1` [Compound 189], the Ki was found to be 5500 nM. As for `CC(C)CN(C[C@@H](O)[C@H](Cc1ccccc1)NC(=O)O[C@H]1CCOC1)S(=O)(=O)c1cccc(S(N)(=O)=O)c1` [Compound 112, Benzene-1,3-disulfonic acid 1-amide 3-((2 syn,3S)-2-hydroxy-4-phenyl-3-(3-(S)-tetrahydrofuran-3-yloxycarbonylamino)-butyl)-isobutyl-amide], the Ki is 4 nM. Under `CC(C)CN(C[C@@H](O)[C@H](Cc1ccccc1)NC(=O)OC(C)(C)C)S(=O)(=O)c1ccc(F)cc1F` [Compound 49] stands 9 nM; under `CC(=O)Nc1ccc(S(=O)(=O)N(CC(C)C)C[C@@H](O)[C@H](Cc2ccccc2)NC(=O)C(NC(N)=O)NC(N)=O)cc1` [Compound 67], 7400 nM; under `CC(C)CN(C[C@@H](O)[C@H](Cc1ccccc1)NC(=O)COc1ccccc1)S(=O)(=O)c1cccc2nonc12` [Compound 57], 200 nM. Take `Nc1ccc(S(=O)(=O)N(CC2CCCC2)C[C@@H](O)[C@H](Cc2ccccc2)NC(=O)O[C@H]2CCOC2)c(N)c1` [Compound 173, 2,4-Diamino-N-cyclopentylmethyl-N-((2 syn,3S)-2-hydroxy-4-phenyl-3-((S)-tetrahydrofuran-3-yloxycarbonylamino)-butyl)-benzenesulfonamide]: the inhibitory constant (Ki) came to 0.6 nM. Regarding `CC(=O)Nc1cc(S(=O)(=O)N(CC(C)C)C[C@@H](O)[C@H](Cc2ccccc2)NC(=O)c2cc(C(C)(C)C)nn2Cc2ccccc2)ccc1F` [Compound 55], the Ki is 430 nM. `CC(=O)Nc1ccc(S(=O)(=O)N(CC(C)C)C[C@@H](O)[C@H](Cc2ccccc2)NC(=O)OCCc2ccccc2)cc1` [Compound 164]: the Ki is 130 nM.

On to `CC(=O)Nc1nc(C)c(S(=O)(=O)N(Cc2ccccc2)C[C@@H](O)[C@H](Cc2ccccc2)NC(=O)[C@H](CC(N)=O)NC(=O)c2ccc3ccccc3n2)s1` [Compound 5], for which the Ki is 2 nM. As to `O=C(N[C@@H](Cc1ccccc1)[C@H](O)CN(CC1CCCC1)S(=O)(=O)c1ccc(F)cc1)O[C@H]1CCOC1` [Compound 182, N-Cyclopentylmethyl-4-fluoro-N-((2 syn,3S)-2-hydroxy-4-phenyl-3-((S)-tetrahydrofuran-3-yloxycarbonylamino)-butyl)-benzenesulfonamide], the inhibition constant Ki worked out at 0.2 nM.
